Results as given in patent publication US9771563B2, “Chemical approaches for generation of induced pluripotent stem cells” (The Scripps Research Institute, priority 2008, dated 2017).

Key:
[1] = system: primary OG2 neural progenitor cells; test: iPS cell induction from neural progenitor cells after retroviral transduction; format: cell-based, mouse
Experimental: The reporter neural progenitor cells were generated using a well established protocol by differentiating the Oct4-GiP mESCs grown in monolayer on gelatin in a chemically defined medium/CDM condition in the absence of serum and other growth factors/cytokines at low cell density for eight days, followed by neurophere formation and subsequent serial passaging in single cells in neural cell expansion media supplemented with 10 ng/ml of bFGF and EGF in monolayer for over six passages/24 days. The resulting neural progenitor cells were homogenous by cell morphology and neural marker expression, and were confirmed to be GFP negative and puromycin sensitive. Such neural progenitor cells plated in monolayer in conventional mESC growth media were transduced with combinations of four, three, or two of the four factors, followed by treating the transduced cells with individual small molecules from a small known drug collection in a typical 6-well format. The compound treatment and culture were continued for additional ten days before puromycin was added. The number of green and puro-resistant colonies was counted at day 14. In comparison to the only four-gene transduced neural cells as the positive control, compound conditions that generated more green colonies than the corresponding gene-only conditions were picked as primary hits. To further confirm these primary hit conditions, we chose to use a late passage of mouse CNS neural progenitor cells (Do, J. T. et al., Stem Cells 25, 1013-1020 (2007)) that were derived from fetal brain of OG2^+/−/ROSA26^+/− transgenic mice (which contain an Oct4-GFP reporter) and expanded in monolayer under the same neural CDM condition as the above with 10 ng/ml of bFGF and EGF. Such cells truly from a non-pluripotent tissue would be devoid of concerns of any contaminating ES cell in the above screening system, which is highly unlikely with all appropriate controls. Similar culture conditions and reprogramming assays were performed using the OG2 neural progenitor cells except that puromycin was not used and green colonies were picked out and characterized by staining of Nanog, SSEA1 and ALP.
mESC-derived or primary OG2 mouse neural progenitor cells were plated into Matrigel (1:50, BD Biosciences) coated 6-well plates at 3.5×10^4 cells/well in the neural progenitor cell expansion media. After one day these cells were transduced with retrovirus for overnight, and the medium was changed into the mESC growth media [DMEM, 5% FBS, 10% KSR, 1× non-essential amino acids (Gibco), 2 mM L-glutamine (Gibco), 0.1 mM β-mercaptoethanol (Gibco) and 10^3 unit/ml LIF (Chemicon)] with or without BIX01294 (0.5-1 μM). GFP-positive iPS cell colonies appeared after 9-14 days, and were picked out and expanded on MEF feeder cells with the mESC growth media.

[2] = system: mouse embryonic fibroblasts (129 or OG2 MEFs); test: Screen for iPSC generation from MEFs transduced with Oct4/Klf4 (OK); format: cell-based
Experimental: Unmodified MEFs derived from E13-14 embryos of the 129 mice were used for the initial screen. MEFs were plated on Matrigel at 3.5×10^4 cells/well of a 6-well plate and transduced with OK (retroviral vectors expressing Oct4 and Klf4) alone. Within 14-21 days, treated cells were assessed for the appearance of colonies that had the characteristic embryonic stem cell (ESC) colony morphology and were positive for the pluripotency marker alkaline phosphatase (ALP). Such OK-transduced cells generated only a few small non-compact colonies, which were weakly positive for ALP expression. These colonies initially appeared within 21 days after viral transduction and were difficult to expand. Therefore, such assay system offered a clean background for the identification of small molecules having desirable reprogramming inducing activity. Using this system, compounds from a library of around 2000 known small molecules (see Experimental Procedures below) were screened and were identified as hits when they induced the appearance of ESC colonies that were strongly positive for ALP within 14-21 days after treatment. This image-based method provided a more accurate assessment of reprogramming as compared to homogenous reporter-based assay. BIX appeared to have the strongest effect with reproducible induction of more than 1-2 compact ESC-like colonies with high ALP expression. We observed that when MEFs were treated with BIX after OK viral transduction, compact colonies with strong ALP expression could be readily detected within approximately 14-21 days. These cells were also positive for Nanog, Oct4 and SSEA-1 expression. […] However, the reprogramming efficiency in MEFs transduced with OK and treated with BIX was still low, about 2 colonies/3.5×10^4 cells, in comparison to the four factor-induced reprogramming of MEFs or the OK/BIX NPC reprogramming (Shi, Y. et al., Cell Stem Cell, 2:525-528 (2008)). Therefore, we conducted a second screen using a similar protocol, but where BIX was added to the basal media after OK viral transduction. This provided a more permissive platform to identify new small molecules that could further improve reprogramming efficiency. More importantly, this second screen could facilitate discovery of small molecules that impact reprogramming in a more specific manner, for example by acting on signal transduction pathways rather than on histone or DNA modifying enzymes. In this second screen, we again assayed the library of around 2000 known small molecules (see Experimental Procedures), and confirmed two compounds that were able to act in a synergistic manner with BIX to improve reprogramming based on the criteria of the screen. […] Therefore, RG108 was not pursued further for this study. Instead, we focused our phenotypic and functional characterization on another small molecule that was identified in the second screen, BayK, an L-calcium channel agonist. […] Therefore, BayK might play a more specific role in the reprogramming process. When 129 MEFs were transduced with empty retrovirus (negative control); no colonies observed. When 129 MEFs were transduced with OK without small molecules; few small flattened colonies with weak ALP expression present. […] When OK-transduced MEFs were treated with BIX in combination with BayK, a significant increase in the number of ALP^+ colonies that closely resemble the mESC morphology could be observed (˜7 colonies) as compared to OK-transduced MEFs treated with BIX alone (˜2 colonies).
Primary 12952/SvPasCrlf (primary screen) or ROSA26^+/−/OG2^+/− (secondary screen) MEFs were plated onto Matrigel (1:50; BD Biosciences, Bedford, Mass.) coated dishes at a density of 3.5×10^4 cells per well of a 6-well plate. Twenty-four hours later, these cells were transduced overnight with defined retroviruses at 37° C., 5% CO2. […] (all products were from Invitrogen, Carlsbad, Calif., except where mentioned). […]

mES R1 cells = test: Proliferation assay; format: cell-based, mouse; conditions: 2 μM BayK, 1 μM BIX; 15, 24, 48 hours; vs DMSO
Experimental: mES R1 cells were plated onto gelatin-coated 6-well plates at a density of 2×10^5 cells/well in complete mES cell media. Upon cell attachment, app. 12 hours, the cells were treated either with DMSO, 1 μM BIX, 2 μM BayK, and a combination of both, in triplicate. At 15, 24 and 48 hours, the cells were detached using trypsin, and counted using a hemocytometer. Trypan blue (Sigma-Aldrich, St. Louis, Mo.) was used for dead cell exclusion.

Structure (SMILES): COc1cc2nc(N3CCCN(C)CC3)nc(NC3CCN(Cc4ccccc4)CC3)c2cc1OC [BIX01294]
- appearance of GFP+ iPS cell colonies after transduction and treatment ([1]; OG2 neural progenitor cells transduced with Oct4/Klf4 retroviruses): 12 days
- kinetics of reprogramming ([1]; Oct4/Klf4 viral transduction, BIX01294 treatment): didn't significantly shorten the kinetics of reprogramming
- reprogramming efficiency ([1]; Oct4/Klf4 viral transduction, BIX01294 treatment (0.5-1 μM)): significantly improve the reprogramming efficiency to or higher than the level of using viral transduction of all four factors
- generation of iPS cells in the absence of Oct4 expression ([1]; viral transduction of Klf4, Sox2 and cMyc with simultaneous treatment): can also generate iPS cells
- reprogramming efficiency (GFP+ colonies) ([2]; OG2 MEFs transduced with OK, FIG. 3): 2.5±0.7 colonies per 3.5×10^4 cells
- number of ALP+ colonies that closely resemble the mESC morphology ([2]; OK-transduced 129 MEFs, 14-21 days): about 2 colonies
- proliferation of mES cells (cell number) (mES R1 cells): does not increase the proliferation of mES cells
